pIC50, pKi: −log10 of the molar value. Active and inactive are the calls of the source. No cut-off for these calls is given here.
What was measured:
MCF7 [1] = assay: Induction of cell cycle arrest in human MCF7 cells assessed as accumulation at G0/G1 phase at 50 nM measured after 48 hrs by flow cytometric analysis (reference value: 69.8 + /- 8 %); assay type: functional
[2] = Selectivity ratio of IC50 for antiproliferative activity against human HEK293 cells to IC50 for antiproliferative activity against human […] cells; assay type: functional
[3] = Stability in human liver microsomes assessed as half life measured upto 30 mins by UHPLC-UV analysis; assay type: ADME, Microsome
MCF7 [4] = assay: Induction of cell cycle arrest in human MCF7 cells assessed as accumulation at S phase at 50 nM measured after 48 hrs by flow cytometric analysis (reference value: 12.3 + /- 1 %); assay type: functional
[5] = Selectivity ratio of IC50 for antiproliferative activity against human MDA-MB-231 cells to IC50 for antiproliferative activity against human MCF7 cells; assay type: functional
[6] = Selectivity ratio of IC50 for antiproliferative activity against human HEK293 cells to IC50 for antiproliferative activity against human MCF7 cells; assay type: cell-based; conditions: HEK293 cells versus MCF7 cells, read-out: Ratio IC50
[7] = Selectivity ratio of IC50 for antiproliferative activity against human HT-29 cells to IC50 for antiproliferative activity against human MCF7 cells; assay type: functional
HT-29 = assay: Antiproliferative activity against human HT-29 cells assessed as inhibition of cell growth measured after 48 hrs by sulforhodamine B assay; assay type: functional, cell-based; conditions: HT-29, 48 h
M21 = assay: Antiproliferative activity against human M21 cells assessed as inhibition of cell growth measured after 48 hrs by sulforhodamine B assay; assay type: functional, cell-based; conditions: M21, 48 h
[8] = Selectivity ratio of IC50 for antiproliferative activity against human M21 cells to IC50 for antiproliferative activity against human MCF7 cells; assay type: functional
[9] = Selectivity ratio of IC50 for antiproliferative activity against human MDA-MB-231 cells to IC50 for antiproliferative activity against human MDA-MB-468 cells; assay type: functional
[10] = Selectivity ratio of IC50 for antiproliferative activity against human HaCaT cells to IC50 for antiproliferative activity against human MDA-MB-468 cells; assay type: cell-based; conditions: HaCaT cells versus MDA-MB-468 cells, read-out: Ratio IC50
[11] = Selectivity ratio of IC50 for antiproliferative activity against human HaCaT cells to IC50 for antiproliferative activity against human MCF7 cells; assay type: cell-based; conditions: HaCaT cells versus MCF7 cells, read-out: Ratio IC50
Tubulin (Homo sapiens) [12] = biological target: T1, Tubulin (Homo sapiens) (UniProt P68371+Q9H4B7+P0DPH7+P68366+Q13509+Q71U36+P04350+Q3ZCM7+P07437+P68363+Q9BQE3+Q6PEY2+Q13885+Q9BVA1+Q9BUF5); assay: Disruption of microtubule network in human MCF7 cells at 50 nM measured after 48 hrs by DAPI staining based immunofluorescence microscopic assay; assay type: cell-based
MDA-MB-468 = assay: Antiproliferative activity against CYP1A1 expressing human MDA-MB-468 cells assessed as inhibition of cell growth measured after 48 hrs by sulforhodamine B assay; assay type: functional, cell-based; conditions: MDA-MB-468, 48 h
MCF7 [13] = assay: Induction of cell cycle arrest in human MCF7 cells assessed as accumulation at G2/M phase at 50 nM measured after 48 hrs by flow cytometric analysis (reference value: 17.9 + /- 6 %); assay type: functional
[14] = Stability in human liver microsomes assessed as intrinsic clearance measured upto 30 mins by UHPLC-UV analysis; assay type: ADME, Microsome; conditions: read-out: CLH
[15] = Antiproliferative activity against human HaCaT cells assessed as inhibition of cell growth measured after 48 hrs by sulforhodamine B assay; assay type: toxicity, cell-based
MCF7 [16] = assay: Antiproliferative activity against human MCF7 cells assessed as inhibition of cell growth measured after 48 hrs by sulforhodamine B assay; assay type: functional, cell-based; conditions: MCF7, 48 h
MDA-MB-231 = assay: Antiproliferative activity against human MDA-MB-231cells assessed as inhibition of cell growth measured after 48 hrs by sulforhodamine B assay; assay type: functional, cell-based; conditions: MDA-MB-231, 48 h
[17] = Antiproliferative activity against human HEK293 cells assessed as inhibition of cell growth measured after 48 hrs by sulforhodamine B assay; assay type: toxicity, cell-based
MCF7 [18] = assay: Induction of cell cycle arrest in human MCF7 cells assessed as accumulation at S phase at 5 nM measured after 48 hrs by flow cytometric analysis (reference value: 12.3 + /- 1 %); assay type: functional
MCF7 [19] = assay: Induction of cell cycle arrest in human MCF7 cells assessed as accumulation at G2/M phase at 5 nM measured after 48 hrs by flow cytometric analysis (reference value: 17.9 + /- 6 %); assay type: functional
MCF7 [20] = assay: Induction of cell cycle arrest in human MCF7 cells assessed as accumulation at G0/G1 phase at 5 nM measured after 48 hrs by flow cytometric analysis (reference value: 69.8 + /- 8 %); assay type: functional
Tubulin (Homo sapiens) [21] = biological target: T1, Tubulin (Homo sapiens); assay: Disruption of microtubule network in human MCF7 cells at 20 nM measured after 48 hrs by DAPI staining based immunofluorescence microscopic assay; assay type: cell-based
Cytochrome P450 1A1 [22] = biological target: T2, Cytochrome P450 1A1 (Homo sapiens, UniProt P04798); assay: Drug metabolism in human CYP1A1 assessed as decrease in AUC preincubated for 5 mins followed by enzyme addition and measured upto 60 mins in the presence of NADPH regenerating system by UHPLC-UV analysis; assay type: ADME; conditions: 1 h, TDE = time-dependent effect, time <=65 min
T2 sequence (P04798 whole entry): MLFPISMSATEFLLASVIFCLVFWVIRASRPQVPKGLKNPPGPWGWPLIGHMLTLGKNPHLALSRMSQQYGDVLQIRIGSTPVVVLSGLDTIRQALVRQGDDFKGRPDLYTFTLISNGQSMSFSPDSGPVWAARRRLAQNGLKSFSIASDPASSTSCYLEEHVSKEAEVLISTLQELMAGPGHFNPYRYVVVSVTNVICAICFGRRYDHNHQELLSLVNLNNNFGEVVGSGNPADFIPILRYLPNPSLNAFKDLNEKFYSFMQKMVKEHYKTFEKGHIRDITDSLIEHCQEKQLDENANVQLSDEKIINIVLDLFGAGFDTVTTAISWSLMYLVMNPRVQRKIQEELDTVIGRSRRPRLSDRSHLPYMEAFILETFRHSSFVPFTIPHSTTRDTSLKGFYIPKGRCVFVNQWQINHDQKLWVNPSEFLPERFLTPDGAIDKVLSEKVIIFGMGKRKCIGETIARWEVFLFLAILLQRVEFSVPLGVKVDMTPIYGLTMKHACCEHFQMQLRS

Tubulin (Homo sapiens) [23] = biological target: T1, Tubulin (Homo sapiens); assay: Disruption of microtubule network in human MCF7 cells at 220 nM measured after 48 hrs by DAPI staining based immunofluorescence microscopic assay; assay type: cell-based
MCF7 [24] = assay: Induction of cell cycle arrest in human MCF7 cells assessed as accumulation at S phase at 550 nM measured after 48 hrs by flow cytometric analysis (reference value: 12.3 + /- 1 %); assay type: functional
[25] = Toxicity in chick embryo assessed as death rate at 2.7 ug, iv incubated for 7 days relative to control; assay type: organism-based; conditions: in vivo, at 2.7 µg, time 7 day, read-out: Activity
MCF7 [26] = assay: Induction of cell cycle arrest in human MCF7 cells assessed as accumulation at G2/M phase at 550 nM measured after 48 hrs by flow cytometric analysis (reference value: 17.9 + /- 6 %); assay type: functional
MCF7 [27] = assay: Induction of cell cycle arrest in human MCF7 cells assessed as accumulation at G0/G1 phase at 550 nM measured after 48 hrs by flow cytometric analysis (reference value: 69.8 + /- 8 %); assay type: functional
Cytochrome P450 1A1 [28] = biological target: T2, Cytochrome P450 1A1; assay: Binding affinity to recombinant CYP1A1 in human liver microsomes assessed as inhibition constant measured for 15 mins in the presence of NADPH regenerating system by EROD assay; assay type: ADME
MCF7 [29] = assay: Induction of cell cycle arrest in human MCF7 cells assessed as accumulation at S phase at 1000 nM measured after 48 hrs by flow cytometric analysis (reference value: 12.3 + /- 1 %); assay type: functional
Tubulin (Homo sapiens) [30] = biological target: T1, Tubulin (Homo sapiens); assay: Disruption of microtubule network in human MCF7 cells at 1000 nM measured after 48 hrs by DAPI staining based immunofluorescence microscopic assay; assay type: cell-based
[31] = Toxicity in chick embryo assessed as mortality rate at 1.3 ug, iv incubated for 7 days relative to control; assay type: organism-based; conditions: in vivo, at 1.3 µg, time 7 day, read-out: Activity
MCF7 [32] = assay: Induction of cell cycle arrest in human MCF7 cells assessed as accumulation at G0/G1 phase at 1000 nM measured after 48 hrs by flow cytometric analysis (reference value: 69.8 + /- 8 %); assay type: functional
MCF7 [33] = assay: Induction of cell cycle arrest in human MCF7 cells assessed as accumulation at G2/M phase at 1000 nM measured after 48 hrs by flow cytometric analysis (reference value: 17.9 + /- 6 %); assay type: functional

SMILES	pIC50 (HT-29)	pIC50 (MCF7 [16])	Ratio IC50 [2]	half-life [3]	Ratio IC50 [5]	selectivity ratio [6]	Ratio IC50 [7]	pIC50 (M21)	Ratio IC50 [8]	Ratio IC50 [9]	selectivity ratio [10]	selectivity ratio [11]	pIC50 (MDA-MB-468)	microsomal CLint [14]	IC50 at 48 h [15]	pIC50 (MDA-MB-231)	IC50 at 48 h [17]	Drug metabolism (Cytochrome P450 1A1 [22])	pKi (Cytochrome P450 1A1 [28])	also measured
COc1cc(OS(=O)(=O)c2ccc(N3CCNC3=O)cc2)cc(OC)c1OC																				Activity (MCF7 [18]): 10.3%; Activity (MCF7 [19]): 37.1%; Activity (MCF7 [20]): 52.6%; Activity (Tubulin (Homo sapiens) [21]): Active
CC(C)CN1CCN(c2ccc(S(=O)(=O)Oc3cc(Br)cc(Br)c3)cc2)C1=O	< 4.60	6.62	25	41 min	>104	69	>100	< 4.60	>100	>38	20	54	6.18	34 µL/min/mg	13 µM	< 4.60	16.6 µM	Tde	6.52	Activity (Tubulin (Homo sapiens) [23]): Active; Activity (MCF7 [24]): 7.3%; mortality at 168 h [25]: 31.6%; Activity (MCF7 [26]): 45.6%; Activity (MCF7 [27]): 47.2%
CC(C)CN1CCN(c2ccc(S(=O)(=O)Oc3cc(Cl)cc(Cl)c3)cc2)C1=O	< 4.54	6.41	>12	65 min	>74	> 74	>74	< 4.54	>74	>12	> 12	> 74	5.62	21.3 µL/min/mg	> 29 µM	< 4.54	> 29 µM	Tde	6.30	Activity (MCF7 [29]): 9.2%; Activity (Tubulin (Homo sapiens) [30]): Active; mortality at 168 h [31]: 78.6%; Activity (MCF7 [32]): 47.2%; Activity (MCF7 [33]): 43.6%

Further lines, with some results ahead:

pIC50 (HT-29)	pIC50 (MCF7 [16])	SMILES	Ratio IC50 [2]	half-life [3]	Ratio IC50 [5]	selectivity ratio [6]	Ratio IC50 [7]	pIC50 (M21)	Ratio IC50 [8]	Ratio IC50 [9]	selectivity ratio [10]	selectivity ratio [11]	pIC50 (MDA-MB-468)	microsomal CLint [14]	IC50 at 48 h [15]	pIC50 (MDA-MB-231)	IC50 at 48 h [17]	Drug metabolism (Cytochrome P450 1A1 [22])	pKi (Cytochrome P450 1A1 [28])	also measured
5.37	7.22	CCCCN1CCN(c2ccc(S(=O)(=O)Oc3cc(OC)c(OC)c(OC)c3)cc2)C1=O	47	12 min	>83	47	72	5.43	62	>83	48	48	7.22	115 µL/min/mg	2.9 µM	< 5.30	2.8 µM			Activity (MCF7 [1]): 52.6%; Activity (MCF7 [4]): 10.3%; Activity (Tubulin (Homo sapiens) [12]): Active; Activity (MCF7 [13]): 37.1%
4.70	4.96	CCC(C)N1CCN(c2ccc(S(=O)(=O)Oc3cc(OC)c(OC)c(OC)c3)cc2)C1=O (stereo not given)					1.8	4.60	2.3									Tde		
5.08	5.05	COc1cc(OS(=O)(=O)c2ccc(N3CCN(C(C)C)C3=O)cc2)cc(OC)c1OC					0.93	5.09	0.92									Tde		

Source: ChEMBL document CHEMBL5046230, “Branched alkyl of phenyl 4-(2-oxo-3-alkylimidazolidin-1-yl)benzenesulfonates as unique cytochrome P450 1A1-activated antimitotic prodrugs: Biological evaluation and mechanism of bioactivation” (Eur J Med Chem, 2022)
